The results in this text go back to patent US20190350964A1, “ANTI-CANCER COMPOUNDS AND USES THEREOF” (NATIONAL UNIVERSITY OF SINGAPORE, priority 2016, published 2019).

The target in one series is T1, PI5P4Kα (Homo sapiens, UniProt P48426).
T1 construct: gift from Daiichi Sankyo Co., Ltd. and Daiichi Sankyo RD Novare Co., Ltd
As to the kind of experiment: Cell-free PI5P4Kα activity assay (ADP-Glo). It counts as biochemical. As to conditions: 1 h pre-incubation; PI(5)P 20 μM, ATP 10 μM; read-out: IC50, kinase activity of purified PI5P4Kα in vitro.

For a further series, the system named is PIK3IP1. As to the kind of experiment: qRT-PCR of PIK3IP1 mRNA in Ras- or Raf-mutant cancer cell lines. Particulars: U0126 and/or SCH772984, 24 h. It counts as cell-based, human. The method, then:
[…] human […] ID NO: 11, [NT] ID NO: 12), human […] ID NO: 13, [NT] ID NO: 14), human […] ID NO: 15, [NT] ID NO: 16) and human PIK3IP1 ([NT] ID NO: 17, [NT] ID NO: 18). The TATA-binding protein (TBP) gene was used for normalization. All PCR reactions were performed in triplicate.

Series [1] has as its system normal and transformed BJ cells. As to the kind of experiment: a131 SAR analysis: pH3(Ser10) immunoblot, BrdU incorporation, subG1 FACS. In kind it is cell-based, human. On the set-up: key: Group 1: possess the dual-inhibitory properties of both causing the arrest of normal BJ cells at the G1/S phase and also causing mitotic arrest/catastrophe in transformed BJ cells; Group 2: only cause the arrest of normal BJ cells at the G1/S phase; Group 3: cause mitotic arrest/catastrophe in transformed BJ cells, but do not arrest normal BJ cells at the G1/S phase; Group 4: are inactive or weakly active. As to conditions: 5 μM, 48 h. The method, then: (§1) Cell death was assessed via Annexin V and/or PI (propidium iodide) staining according to the manufacturer's instructions (eBioscience). Cell growth arrest was assessed by direct measurement of DNA synthesis through incorporation of the nucleoside analog bromodeoxyuridine (BrdU). Briefly, BrdU (30 μM, Sigma-Aldrich) was added for 2 h before harvesting cells. Cells were subsequently stained with Pacific Blue-conjugated BrdU antibody (Invitrogen) for 1 h followed by PI staining. Stained cells were analyzed by MACSQuant (MACS). Three independent experiments were performed in triplicate. The percentage of Annexin V/PI- or BrdU-positive cells was quantified using Flow Jo software (Becton Dickinson). Where indicated, the combined activity of caspase-3/7 was determined using the caspase-Glo 3/7 Assay Kit (Promega) and normalized to the number of viable cells as determined by MTT assay.
Total cell lysates were prepared with 1% triton lysis buffer [25 mM Tris HCl (pH 8.0), 150 mM NaCl, 1% triton-X100, 1 mM dithiothreitol (DTT), protease inhibitor mix (Complete Mini, Roche) and phosphatase inhibitor (PhosphoStop, Roche)] and subjected to SDS-PAGE. The following antibodies were used for immunoblotting: anti-β-actin (Sigma-Aldrich), anti-cleaved PARP (Abcam, #ab32064), anti-PI5P4Kα (#5527), anti-PI5P4Kβ (#9694), anti-cleaved caspase-3 (#9664), anti-pHistone H3(Ser10) (#3377), anti-pAkt(S473) (#9271), anti-pAkt(T308) (#13038), anti-total Akt (#9272), anti-p70S6K(T389) (#9234), anti-total p70S6K (#9202), anti-pErk (#4370), anti-γ-Histone H2AX (#9718) (Cell signaling) and anti-PIK3IP1 (Proteintech, #16826-1-AP). The secondary antibodies used were sheep anti-mouse IgG HRP and donkey anti-rabbit IgG HRP (Amersham; 1:2000 dilution). Immunoreactive proteins were visualized using ECL reagent (Amersham). Where indicated, intensities of protein bands were quantified by densitometry (Odyssey V3.0), normalized to their loading controls and then calculated as fold expression change relative to DMSO control.

Series [2] has as its system MDA-MB-231 human breast tumor cells. As to the kind of experiment: MDA-MB-231 tumor xenograft in nude mice. It counts as in vivo, mouse. As to conditions: a131 20 mg/kg, b5 40-80 mg/kg, PO or IP twice daily, 15 days. The text has this: BALB/c athymic female nude mice (nu/nu, 5-7 weeks) (InVivos) were kept under specific pathogen-free (SPF) conditions. The care and use of mice was approved by the Duke-NUS IACUC in accordance with protocol 2015/SHS/1030. HCT15 human colon cancer cells (5×10^6) or MDA-MB-231 human breast cancer cells (4×10^6 with Matrigel) were subcutaneously injected into the flanks of mice. When the mean tumor volume reached 100-300 mm^3 (Day 1), the mice were randomly divided into experimental groups of 6 mice by an algorithm that moves animals around to achieve the best case distribution to assure that each treatment group has similar mean tumor burden and standard deviation. No statistical method was used to predetermine sample size. […] Tumor dimensions were measured using calipers, and tumor volume (mm^3) was calculated using the formula width^2×length/2 in a blinded fashion. […] Images were acquired in 3D-SIM mode using a super resolution microscope (Nikon), and the number of cells with either 2 or mitotic-spindles was quantified (n>50 cells per section, 6-7 sections per treatment). […] For the DAB image, a fixed threshold was used, watershed applied and the number of DAB stained nuclei counted. In all cases, no data or animals were excluded and results are expressed as mean and standard deviation of the mean.

Series [3] has as its system HCT-15 human colon adenocarcinoma cells. As to the kind of experiment: HCT-15 tumor xenograft in nude mice. As to conditions: for antitumor activity (tumor volume): a131 20 mg/kg, b5 40-80 mg/kg, 12 days, paclitaxel IV. In kind it is in vivo, mouse. The text has this: BALB/c athymic female nude mice (nu/nu, 5-7 weeks) (InVivos) were kept under specific pathogen-free (SPF) conditions. The care and use of mice was approved by the Duke-NUS IACUC in accordance with protocol 2015/SHS/1030. HCT15 human colon cancer cells (5×10^6) or MDA-MB-231 human breast cancer cells (4×10^6 with Matrigel) were subcutaneously injected into the flanks of mice. When the mean tumor volume reached 100-300 mm^3 (Day 1), the mice were randomly divided into experimental groups of 6 mice by an algorithm that moves animals around to achieve the best case distribution to assure that each treatment group has similar mean tumor burden and standard deviation. No statistical method was used to predetermine sample size. […] Paclitaxel (Cayman Chemical) was dissolved in ethanol:Tween 80=1:3 (v/v) solution followed by the addition of a 5% glucose solution (final ratio, ethanol:Tween 80:5% glucose=5:15:80) and injected via the tail vain (IV). Tumor dimensions were measured using calipers, and tumor volume (mm^3) was calculated using the formula width^2×length/2 in a blinded fashion. On Day 12 (HCT15) or Day 16 (MDA-MB-231), mice were sacrificed. Tumors were collected, fixed overnight in 4% paraformaldehyde (PFA) and stored in 70% ethanol. For immunostaining, antigens were retrieved from formaldehyde-fixed, paraffin-embedded tumor tissue sections for 30 min by boiling in sodium citrate buffer (pH 6.0) using a microwave histoprocessor (Milestone). Endogenous peroxidase activity in tissue sections was depleted by treatment with 3% hydrogen peroxide (H2O2 in 1×TBS) for 20 min at room temperature. Tumor tissue sections were incubated overnight with anti-β-tubulin (Abcam; 1:100 in 3% BSA/TBS-Tween 20) at 4° C. followed by incubation with goat anti-rabbit FITC-conjugated secondary antibody (Invitrogen; 1:200 in 3% BSA/TBS) for 1 h at 25° C. After dehydration treatment, coverslips were mounted using DAPI mounting medium (Vector). Images were acquired in 3D-SIM mode using a super resolution microscope (Nikon), and the number of cells with either 2 or mitotic-spindles was quantified (n>50 cells per section, 6-7 sections per treatment). For detection of apoptosis using the TUNEL method, the ApopTag Plus Peroxidase In Situ Apoptosis Detection Kit (Millipore) was used for formaldehyde-fixed, paraffin-embedded tumor tissue sections treated with b5 (80 mg/kg, IP) or control vehicle for 12 days. Slide scans were acquired using a MetaSystems Metafer built on a Zeiss Axiolmager Z.2 upright microscope. The system is equipped with a CoolCubel camera and a Zeiss Plan-Neofluar 20×/0.5 Ph2 objective lens. Image acquisition was controlled with Metafer4 software, and stitching was performed with the VSlide software and further processed using the open source software FIJI. A custom macro was used to batch process the images in the following sequence: Gaussian filter, color deconvolution of hematoxylin and DAB, thresholding the hematoxylin image, watershed to separate touching nuclei, and then count the number of hematoxylin-stained nuclei. For the DAB image, a fixed threshold was used, watershed applied and the number of DAB stained nuclei counted. In all cases, no data or animals were excluded and results are expressed as mean and standard deviation of the mean.

Series [4] concerns normal and transformed BJ cells. As to the kind of experiment: Crystal violet / MTT viability of isogenic normal and transformed BJ cells. As to conditions: 72 h; crystal violet and MTT (0.1-40 μM).
For series [5] the test system is unchanged. As to the kind of experiment: Chemoprotection: a166 pre-treatment followed by a159, paclitaxel or etoposide. It counts as cell-based, human. Particulars: without a166 pre-treatment. The method, then: as §1

T1 sequence (P48426 whole entry): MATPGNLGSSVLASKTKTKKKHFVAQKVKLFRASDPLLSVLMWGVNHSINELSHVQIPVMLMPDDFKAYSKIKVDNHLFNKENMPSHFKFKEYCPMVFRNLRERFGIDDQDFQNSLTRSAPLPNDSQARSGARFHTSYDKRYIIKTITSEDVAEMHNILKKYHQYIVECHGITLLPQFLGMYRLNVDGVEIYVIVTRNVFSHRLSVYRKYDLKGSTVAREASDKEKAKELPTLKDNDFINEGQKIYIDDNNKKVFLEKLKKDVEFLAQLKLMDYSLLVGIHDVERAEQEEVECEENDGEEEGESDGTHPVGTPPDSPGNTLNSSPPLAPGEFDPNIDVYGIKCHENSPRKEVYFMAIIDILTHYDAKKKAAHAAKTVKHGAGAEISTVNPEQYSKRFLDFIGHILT
Method for PI5P4Kα: For cell-free PI5P4Kα activity assays, serial dilutions of compounds were pre-incubated with 1 ng of PI5P4Kα (kind gift from Daiichi Sankyo Co., Ltd. and Daiichi Sankyo RD Novare Co., Ltd.) in reaction buffer [50 mM HEPES (pH 7.0), 13 mM MgCl2, 0.005% CHAPS, 0.01% BSA, 2.5 mM DTT] for 1 h at 25° C. DOPS (80 μM, Avanti polar lipids), PI(5)P (20 μM, Echelon) and ATP (10 μM, Sigma-Aldrich) were added and further incubated for 90 min at room temperature. PI5P4Kα activity was measured by recording luminescent signals (Tecan) using an ADP-Glo Kinase Assay (Promega) according to the manufacturer's protocol.

On to `COc1cc(/C=C(\C#N)C(=O)c2ccc(O)c(O)c2)cc(I)c1O` [I-OMe-AG-538], for which, on PI5P4Kα, the IC50 was found to be 2100 nM.
With `O=C(Nc1ccc2[nH]nc(-c3ccncc3)c2c1)[C@@H]1CCN(CC(=O)N2CCN(c3ccc(-c4ncccn4)cc3)CC2)C1` [SCH772984], the “PIK3IP1 mRNA expression after MEK/ERK inhibition” value with PIK3IP1 was “attenuates Ras- and Raf-mediated suppression of PIK3IP1”.
The same measure, in the same setting: to `N#CC(=C(/N)Sc1ccccc1N)/C(C#N)=C(\N)Sc1ccccc1N` [U0126] belongs “attenuates Ras- and Raf-mediated suppression of PIK3IP1”.
Regarding `N#C/C(=C\c1cncc2ccccc12)c1c[nH]c2ccccc12` [a132], the “Group (a131 SAR analysis)” value in series [1] is given as “Group 4”.
Still for that read-out and setting: then `N#C/C(=C\c1cccc2cccnc12)c1c[nH]c2ccccc12` [a158], with “Group 2”.
In the case of `N#C/C(=C\c1cccc2ncccc12)c1c[nH]c2ccccc12` [a159], the “Group (a131 SAR analysis)” value in series [1] is listed as “Group 3”.
Turning to `N#C/C(=C\c1cccc2cnccc12)c1c[nH]c2ncccc12` [a167], the “Group (a131 SAR analysis)” value in series [1] is recorded as “Group 4”.
Same read-out and setting: then `N#C/C(=C\c1cccc2cnccc12)c1nc2ccccc2[nH]1` [a169], with “Group 4”.
As for `CN1CCN(CC(=O)n2cc(/C(C#N)=C/c3cccc4cnccc34)c3ccccc32)CC1` [b5, (Z)-3-(isoquinolin-5-yl)-2-(1-(2-(4-methylpiperazin-1-yl)acetyl)-1H-indol-3-yl)acrylonitrile], the “Group (a131 SAR analysis)” value in series [1] is given as “Group 1”. The “antitumor activity (tumor volume)” value in series [2] and in series [3] (PO or IP twice daily) was “marked antitumor efficacies” each time. The “cancer cell death in tumor sections (TUNEL staining)” value in series [3] (HCT-15 tumor sections, Day 12, b5 80 mg/kg IP) is listed as “cancer cell death as determined by TUNEL staining”. In addition, in series [3] (xenograft-bearing mice, PO or IP twice daily), the body weight loss result is “without any body weight loss”.
For the molecule `CC(=O)NCCC(=O)n1cc(/C(C#N)=C/c2cccc3cnccc23)c2ccccc21` [b9], in series [1], the “Group (a131 SAR analysis)” value is recorded as “Group 1”.
On the same count and under the same terms, to `N#C/C(=C\c1cccc2cnccc12)c1c[nH]c2ccc(OCCCN3CCCC3)cc12` [b12] belongs “Group 2”; to `COCCOc1ccc2[nH]cc(/C(C#N)=C/c3cccc4cnccc34)c2c1` [b16], “Group 2”.
Still for that read-out and setting: to `CN1CCN(C(=O)Cn2cc(/C(C#N)=C/c3cccc4cnccc34)c3ccccc32)CC1` [b94] belongs “Group 2”.
Consider `COC(=O)Nc1nc2ccc(C(=O)c3cccs3)cc2[nH]1` [nocodazole], for which the “selective killing of transformed versus normal BJ cells (cell viability)” value in series [4] is given as “showed minimal selectivity”.
In the case of `CC(=O)O[C@H]1C(=O)[C@@]2(C)[C@H]([C@H](OC(=O)c3ccccc3)[C@]3(O)C[C@H](OC(=O)[C@H](O)[C@@H](NC(=O)c4ccccc4)c4ccccc4)C(C)=C1C3(C)C)[C@]1(OC(C)=O)CO[C@@H]1C[C@@H]2O` [paclitaxel], in series [5], the “selectivity against transformed BJ cells, treatment alone” value is “showed minimal selectivity against transformed BJ cells”. Moreover, the “selective killing of transformed versus normal BJ cells (cell viability)” value in series [4] was “showed minimal selectivity”. Also, the “antitumor activity (tumor volume)” value in series [3] (PO or IP twice daily) is recorded as “did not show significant antitumor activity”.
